The results in this text go back to patent US10246422B2, “Heterocyclic compounds and use thereof in medicine and in cosmetics” (GALDERMA RESEARCH & DEVELOPMENT, priority 2014, dated 2019).

A short description of the data set: Metabolic stability in the presence of human hepatic microsomes. The format is in vitro ADME. The note with it: compound 1 μM (DMSO 0.1%), microsomal protein 0.5 mg/mL, LC/MS/MS. As for the experimental part: This is illustrated more particularly by the test of metabolic stability in the presence of human hepatic microsomes presented below.
Human hepatic microsomes (Becton Dickinson) are incubated at a protein concentration of 0.5 mg/mL in the reaction mixture.
The reaction mixture of the microsomes consists of phosphate buffer pH: 7.4 at 100 mM, MgCl2 at 100 mM (50/50), a system for generating […] consisting of a mixture of nicotinamide adenine […] (NADP), glucose-6-phosphate (G6P) at 1 mg/mL and glucose-6-phosphate dehydrogenase (G6PDH) at 4 U/mL. The compounds are tested at 1 μM (DMSO 0.1%).
The samples are taken from the incubation medium after adding the microsomes, at time 15 minutes. The metabolic reaction is stopped by adding methanol (1 volume incubation medium/3 volumes of methanol). The percentage of the parent product remaining after 15 minutes is measured by LC/MS/MS analysis.

On to `COc1c(C)cccc1-c1cn(CC(=O)N2CCC(N3CCc4ccccc4NC3=O)CC2)c(=O)n(C)c1=O` [Compound 25, 5-(2-methoxy-3-methylphenyl)-3-methyl-1-{2-oxo-2-[4-(2-oxo-1,2,4,5-tetrahydro-benzo[d][1,3]diazepin-3-yl)-piperidin-1-yl]-ethyl}-1H-pyrimidine-2,4-dione], for which the “% of product remaining at 15 min (human hepatic microsomes)” value (“% of product remaining at 15 min” for short) is 8%.
To `Cc1cccc(-c2cn(CC(=O)N3CCC(N4CCc5ccccc5NC4=O)CC3)c(=O)n(C)c2=O)c1C` [Compound 30, 5-(2,3-dimethylphenyl)-3-methyl-1-{2-oxo-2-[4-(2-oxo-1,2,4,5-tetrahydro-benzo[d][1,3]diazepin-3-yl)-piperidin-1-yl]-ethyl}-1H-pyrimidine-2,4-dione] belongs 16%; to `CC(C)n1c(=O)c(-c2cccc(F)c2Cl)cn(CC(=O)N2CCC(N3CCc4ccccc4NC3=O)CC2)c1=O` [Compound 63, 5-(2-chloro-3-fluorophenyl)-3-isopropyl-1-{2-oxo-2-[4-(2-oxo-1,2,4,5-tetrahydro-benzo[d][1,3]diazepin-3-yl)-piperidin-1-yl]-ethyl}-1H-pyrimidine-2,4-dione], 45%.
To `COC[C@@H](C)n1c(=O)c(-c2cccc(F)c2Cl)cn(CC(=O)N2CCC(N3CCc4ccccc4NC3=O)CC2)c1=O` [Compound 110, 5-(2-chloro-3-fluorophenyl)-3-((R)-2-methoxy-1-methylethyl)-1-{2-oxo-2-[4-(2-oxo-1,2,4,5-tetrahydro-benzo[d][1,3]diazepin-3-yl)-piperidin-1-yl]-ethyl}-1H-pyrimidine-2,4-dione] belongs 1%; to `CSCCn1c(=O)c(-c2cccc(F)c2Cl)cn(CC(=O)N2CCC(N3CCc4ccccc4NC3=O)CC2)c1=O` [Compound 112, 5-(2-chloro-3-fluorophenyl)-3-(2-methylsulphanyl-ethyl)-1-{2-oxo-2-[4-(2-oxo-1,2,4,5-tetrahydro-benzo[d][1,3]diazepin-3-yl)-piperidin-1-yl]-ethyl}-1H-pyrimidine-2,4-dione], 0%.
To `COC(=O)CCn1c(=O)c(-c2cccc(F)c2Cl)cn(CC(=O)N2CCC(N3CCc4ccccc4NC3=O)CC2)c1=O` [Compound 114, 3-(5-(2-chloro-3-fluorophenyl)-2,6-dioxo-3-{2-oxo-2-[4-(2-oxo-1,2,4,5-tetrahydro-benzo[d][1,3]diazepin-3-yl)-piperidin-1-yl]-ethyl}-3,6-dihydro-2H-pyrimidin-1-yl)-methyl propionate] belongs 41%.
In the case of `COc1ccc2c(c1)CCN(C1CCN(C(=O)Cn3cc(-c4cccc(F)c4Cl)c(=O)n([C@@H](C)CNC(C)=O)c3=O)CC1)C(=O)N2` [Compound 115, N—[(S)-2-(5-(2-chloro-3-fluorophenyl)-3-{2-[4-(7-methoxy-2-oxo-1,2,4,5-tetrahydro-benzo[d][1,3]diazepin-3-yl)-piperidin-1-yl]-2-oxo-ethyl}-2,6-dioxo-3,6-dihydro-2H-pyrimidin-1-yl)-propyl]acetamide], the “% of product remaining at 15 min” value came to 0%.
To `COc1ccc2c(c1)CCN(C1CCN(C(=O)Cn3cc(-c4cccc(F)c4Cl)c(=O)n([C@@H](C)CNS(C)(=O)=O)c3=O)CC1)C(=O)N2` [Compound 120, N—[(S)-2-(5-(2-chloro-3-fluorophenyl)-3-{2-[4-(7-methoxy-2-oxo-1,2,4,5-tetrahydro-benzo[d][1,3]diazepin-3-yl)-piperidin-1-yl]-2-oxo-ethyl}-2,6-dioxo-3,6-dihydro-2H-pyrimidin-1-yl)-propyl]-methanesulphonamide] belongs 1%; to `COc1ccc2c(c1)CCN(C1CCN(C(=O)Cn3cc(-c4cccc(F)c4Cl)c(=O)n([C@@H](C)CS(C)(=O)=O)c3=O)CC1)C(=O)N2` [Compound 142, 5-(2-chloro-3-fluorophenyl)-3-((S)-2-methanesulphonyl-1-methylethyl)-1-{2-[4-(7-methoxy-2-oxo-1,2,4,5-tetrahydro-benzo[d][1,3]diazepin-3-yl)-piperidin-1-yl]-2-oxo-ethyl}-1H-pyrimidine-2,4-dione], 65%; to `COc1ccc2c(c1)CCN(C1CCN(C(=O)Cn3cc(-c4cccc(F)c4Cl)c(=O)n([C@H](C)CS(C)(=O)=O)c3=O)CC1)C(=O)N2` [Compound 143, 5-(2-chloro-3-fluorophenyl)-3-((R)-2-methanesulphonyl-1-methylethyl)-1-{2-[4-(7-methoxy-2-oxo-1,2,4,5-tetrahydro-benzo[d][1,3]diazepin-3-yl)-piperidin-1-yl]-2-oxo-ethyl}-1H-pyrimidine-2,4-dione], 42%.
To `COc1ccc2c(c1)CCN(C1CCN(C(=O)Cn3cc(-c4cccc(OC)c4F)c(=O)n(C(C)C)c3=O)CC1)C(=O)N2` [Compound 149, 5-(2-fluoro-3-methoxyphenyl)-3-isopropyl-1-{2-[4-(7-methoxy-2-oxo-1,2,4,5-tetrahydro-benzo[d][1,3]diazepin-3-yl)-piperidin-1-yl]-2-oxo-ethyl}-1H-pyrimidine-2,4-dione] belongs 26%.
To `COc1ccc2c(c1)CCN(C1CCN(C(=O)Cn3cc(-c4ccccc4OC(F)(F)F)c(=O)n(C(C)C)c3=O)CC1)C(=O)N2` [Compound 150, 3-isopropyl-1-{2-[4-(7-methoxy-2-oxo-1,2,4,5-tetrahydro-benzo[d][1,3]diazepin-3-yl)-piperidin-1-yl]-2-oxo-ethyl}-5-(2-trifluoromethoxyphenyl)-1H-pyrimidine-2,4-dione] belongs 0%.
On to `CCC(=O)NC[C@H](C)n1c(=O)c(-c2cccc(F)c2Cl)cn(CC(=O)N2CCC(N3CCc4cc(OC)ccc4NC3=O)CC2)c1=O` [Compound 158, N—[(S)-2-(5-(2-chloro-3-fluorophenyl)-3-{2-[4-(7-methoxy-2-oxo-1,2,4,5-tetrahydro-benzo[d][1,3]diazepin-3-yl)-piperidin-1-yl]-2-oxo-ethyl}-2,6-dioxo-3,6-dihydro-2H-pyrimidin-1-yl)-propyl]-propionamide], for which the “% of product remaining at 15 min” value is 0%.
To `COC[C@H](C)n1c(=O)c(-c2cccc(F)c2Cl)cn(CC(=O)Nc2ccc3c(c2)C[C@@]2(C3)C(=O)Nc3ncccc32)c1=O` [Compound 165] belongs 0%; to `COc1cccc(C2=CN(CC(=O)N3CCC(N4CCc5ccccc5NC4=O)CC3)C(=O)N(C(C)C)C2)c1Cl` [Compound 193, 3-(1-{2-[5-(2-chloro-3-methoxyphenyl)-3-isopropyl-2-oxo-3,4-dihydro-2H-pyrimidin-1-yl]-acetyl}-piperidin-4-yl)-1,3,4,5-tetrahydro-benzo[d][1,3]diazepin-2-one], 18%; to `COc1ccc2c(c1)CCN(C1CCN(C(=O)Cn3cc(-c4cccc(OC)c4Cl)c(=O)n([C@@H](C)CNC(C)=O)c3=O)CC1)C(=O)N2` [Compound 206, N—[(S)-2-(5-(2-chloro-3-methoxyphenyl)-3-{2-[4-(7-methoxy-2-oxo-1,2,4,5-tetrahydro-benzo[d][1,3]diazepin-3-yl)-piperidin-1-yl]-2-oxo-ethyl}-2,6-dioxo-3,6-dihydro-2H-pyrimidin-1-yl)-propyl]acetamide], 1%.
As for `COCC(COC)n1c(=O)c(-c2cccc(F)c2Cl)cn(CC(=O)N2CCC(N3CCc4cc(OC)ccc4NC3=O)CC2)c1=O` [Compound 232, 5-(2-chloro-3-fluorophenyl)-3-[2-methoxy-1-(methoxymethyl)ethyl]-1-[2-[4-(7-methoxy-2-oxo-4,5-dihydro-1H-1,3-benzodiazepin-3-yl)-1-piperidyl]-2-oxo-ethyl]pyrimidine-2,4-dione], the “% of product remaining at 15 min” value is listed as 1%.
To `CC[C@H](C)n1c(=O)c(-c2cccc(F)c2Cl)cn(CC(=O)N2CCC(N3CCc4cc(OC)ccc4NC3=O)CC2)c1=O` [Compound 237, 5-(2-chloro-3-fluorophenyl)-1-[2-[4-(7-methoxy-2-oxo-4,5-dihydro-1H-1,3-benzodiazepin-3-yl)-1-piperidyl]-2-oxo-ethyl]-3-[(1S)-1-methylpropyl]pyrimidine-2,4-dione] belongs 3%; to `COc1ccc2c(c1)CCN(C1CCN(C(=O)Cn3cc(-c4cccc(F)c4Cl)c(=O)n(CC(C)(C)OC)c3=O)CC1)C(=O)N2` [Compound 240, 5-(2-chloro-3-fluorophenyl)-3-(2-methoxy-2-methylpropyl)-1-[2-[4-(7-methoxy-2-oxo-4,5-dihydro-1H-1,3-benzodiazepin-3-yl)-1-piperidyl]-2-oxo-ethyl]pyrimidine-2,4-dione], 0%; to `COc1ccc2c(c1)CCN(C1CCN(C(=O)Cn3cc(-c4cccc(F)c4Cl)c(=O)n(CCn4cnnc4)c3=O)CC1)C(=O)N2` [Compound 251, 5-(2-chloro-3-fluorophenyl)-1-[2-[4-(7-methoxy-2-oxo-4,5-dihydro-1H-1,3-benzodiazepin-3-yl)-1-piperidyl]-2-oxo-ethyl]-3-[2-(1,2,4-triazol-4-yl)ethyl]pyrimidine-2,4-dione], 4%.
Regarding `O=C(CN1C(=O)C2(CCCC2)NC[C@H]1c1cc(F)cc(F)c1)Nc1ccc2c(c1)C[C@@]1(C2)C(=O)Nc2ncccc21` [MK-3207, reference compound], the “% of product remaining at 15 min” value came out at 100%.
To `NCCCC[C@H](NC(=O)[C@@H](Cc1cc(Br)c(O)c(Br)c1)NC(=O)N1CCC(N2Cc3ccccc3NC2=O)CC1)C(=O)N1CCN(c2ccncc2)CC1` [Olcegepant, olcegepant, reference compound] belongs 100%.
